PubChem BioAssay (NCI)
Several values for one entry are separate records, joined by “and”; a condition that tells them apart may be missing. Equal values may be shown once.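 Test compounds were applied to cells in 96-well plates for 48 hours at 5 doses. GI50: concentration for 50% inhibition of growth. At the TGI there is no net growth.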

How the values were obtained:
Experiment in all cases: DTP human tumour cell line panel, 48 h
SK-MEL-28 melanoma = tested on: SK-MEL-28 melanoma
CAKI-1 renal = tested on: CAKI-1 renal
COLO 205 colon = tested on: COLO 205 colon
HOP-18 NSCLC = tested on: HOP-18 NSCLC
UACC-257 melanoma = tested on: UACC-257 melanoma
HL-60(TB) leukemia = tested on: HL-60(TB) leukemia
DMS 273 small cell lung = tested on: DMS 273 small cell lung
NCI-H23 lung = tested on: NCI-H23 lung
KM12 colon = tested on: KM12 colon
SF-295 CNS = tested on: SF-295 CNS

Row | SMILES | TGI (SK-MEL-28 melanoma) | TGI (CAKI-1 renal) | TGI (COLO 205 colon) | TGI (HOP-18 NSCLC) | TGI (UACC-257 melanoma) | TGI (HL-60(TB) leukemia) | TGI (DMS 273 small cell lung) | TGI (NCI-H23 lung) | TGI (KM12 colon) | TGI (SF-295 CNS) | GI50 (SK-MEL-28 melanoma) | GI50 (CAKI-1 renal) | GI50 (COLO 205 colon) | GI50 (HOP-18 NSCLC) | GI50 (UACC-257 melanoma) | GI50 (NCI-H23 lung) | GI50 (KM12 colon) | GI50 (SF-295 CNS)
1 | NC1=NN(c2ccccc2)C(=O)C1C(=O)C(=O)Nc1ccc(Cl)cc1 (stereo not given) | > 100 µM | > 100 µM | > 100 µM | > 100 µM | > 100 µM | > 100 µM | > 100 µM | > 100 µM | > 100 µM | > 100 µM |  |  |  |  |  |  |  | 
2 | N#CCCN(CCC#N)c1ccc(/C=C(/NC(=O)c2cc([N+](=O)[O-])ccc2Cl)C(=O)N=[N+]=[N-])cc1 | > 100 µM | > 100 µM | > 100 µM | > 100 µM | > 100 µM | > 100 µM | > 100 µM | > 100 µM | > 100 µM | > 100 µM |  |  |  |  |  |  |  | 
3 | O/N=C1/CCC/C1=C\c1ccccc1 | > 100 µM | > 100 µM | > 100 µM | > 100 µM | > 100 µM | > 100 µM | > 100 µM | > 100 µM | > 100 µM | > 100 µM |  |  |  |  |  |  |  | 
4 | CC(=O)OC1C[C@H]2C(OC(=O)c3ccccc3)C3C4(OC(C)=O)COC4C[C@H](OC(C)=O)[C@@]3(C)C(OC(C)=O)[C@H](OC(C)=O)C(=C1C)C2(C)C (stereo not given in full) | > 100 µM | 31.4 µM | > 100 µM | > 100 µM | > 100 µM | 72 µM | > 100 µM | > 100 µM | > 100 µM | > 100 µM |  |  |  |  |  |  |  | 
5 | Nc1cn(C2OC(CC(c3ccccc3)(c3ccccc3)c3ccccc3)C(O)C2O)c(=O)[nH]c1=O (stereo not given) | 81.7 µM | 57.1 µM | 30.3 µM | 67.7 µM | 52.3 µM | 36.9 µM | > 100 µM | 65.8 µM | > 100 µM | 99.7 µM |  |  |  |  |  |  |  | 
6 | Cc1cccc(C(C)(C)C)c1NC(=O)C(C#N)C1=C(Cl)C(=O)c2ccccc2C1=O (stereo not given) | 31.5 µM | 31.5 µM | 35 µM | 24.3 µM | 30.3 µM | 26 µM | 36.2 µM | 30.2 µM | 31.3 µM | 30.8 µM |  |  |  |  |  |  |  | 
7 | O=C(CCc1nc(=S)[nH][nH]1)Nc1cc(Cl)ccc1Cl | > 100 µM | > 100 µM | > 100 µM | > 100 µM | > 100 µM | > 100 µM | > 100 µM | > 100 µM | > 100 µM | > 100 µM |  |  |  |  |  |  |  | 
8 | NC(CCSCC(F)(F)F)C(=O)O (stereo not given) | > 100 µM | > 100 µM | > 100 µM | > 100 µM | > 100 µM | > 100 µM | > 100 µM | > 100 µM | > 100 µM | > 100 µM |  |  |  |  |  |  |  | 
9 | O=C(CCC(=O)Nc1ccccc1C(F)(F)F)N/N=C1\C(=N\NC(=O)CCC(=O)Nc2ccccc2C(F)(F)F)C(c2ccc3c(c2)OCO3)Oc2ccccc21 (stereo not given) | > 100 µM | 98 µM | > 100 µM | > 100 µM | > 100 µM | > 100 µM | > 100 µM | > 100 µM | > 100 µM | > 100 µM |  |  |  |  |  |  |  | 
10 | CCc1cccc(C(C)C)c1NC(=O)CC1Sc2ccccc2NC1=O (stereo not given) | > 100 µM | > 100 µM | > 100 µM | > 100 µM | > 100 µM | 50 µM | > 100 µM | > 100 µM | > 100 µM | > 100 µM |  |  |  |  |  |  |  | 
11 | Cc1noc2cccc(O)c12 | > 100 µM | > 100 µM | > 100 µM | > 100 µM | > 100 µM | > 100 µM | > 100 µM | > 100 µM | > 100 µM | > 100 µM |  |  |  |  |  |  |  | 
12 | COc1ccc(C(c2ccccc2C(=O)O)c2ccc(OC)c3ccccc23)c2ccccc12 |  | 63.4 µM | 30.2 µM | 13.4 µM | 24.5 µM | 38.1 µM | 32.4 µM |  | 23.1 µM | 25.6 µM |  |  |  |  |  |  |  | 
13 | O=C1c2c(O)cccc2C(C(=O)CCCCCC(=O)C2c3cccc(O)c3C(=O)c3c(O)cccc32)c2cccc(O)c21 | 4.63 µM and 14.8 µM | 10.2 µM and 19.9 µM | 25 µM and 15.5 µM | 4.28 µM and 14.9 µM | 2.73 µM and 10.6 µM | 5.35 µM and 4.77 µM | 13.3 µM | 1.88 µM and 12.9 µM | 3.71 µM and 5.6 µM | 25 µM and 3.74 µM | 7.4 µM | 10.6 µM | 7.8 µM | 7.95 µM | 3.9 µM | 3.94 µM | 1.65 µM | 1.48 µM
14 | O=C(NCCCCCCCCCCCCNC(=O)c1cnc2ccccc2n1)c1cnc2ccccc2n1 | > 100 µM | > 100 µM | > 100 µM | 79.4 µM | > 100 µM | > 100 µM | > 100 µM |  | > 100 µM | > 100 µM |  |  |  |  |  |  |  | 
15 | Cc1cc(=O)oc2c(C3=NN(C=O)C(c4ccccc4)C3)c(O)ccc12 (stereo not given) | > 100 µM | > 94.9 µM | > 81.1 µM | > 100 µM | > 100 µM | > 100 µM | > 100 µM | > 100 µM | > 100 µM | > 31.1 µM |  |  |  |  |  |  |  | 
16 | COC(=O)C(=O)C(CC(=O)Nc1cc(Cl)ccc1Cl)C(=O)OC (stereo not given) | > 100 µM | > 100 µM | > 100 µM | > 100 µM | > 100 µM | > 100 µM | > 100 µM | > 100 µM | > 100 µM | > 100 µM |  |  |  |  |  |  |  | 
17 | C/C(=N\Nc1ccccc1)c1sc(-c2nc(C)c(/C(C)=N/Nc3ccccc3)s2)nc1C | > 85.8 µM | > 89.4 µM | 25.6 µM | > 96.6 µM | > 70.4 µM | > 100 µM | > 21.1 µM | > 100 µM | > 100 µM | > 34.9 µM |  |  |  |  |  |  |  | 
18 | CCCCCCCCCCC(=O)CCCCCCC(=O)O | > 100 µM | 81.5 µM | 29.8 µM | 39 µM | > 100 µM | 18.7 µM | 47.1 µM | 98.4 µM | 29.9 µM | 48.7 µM |  |  |  |  |  |  |  | 
19 | C/C(=C1/N=C(c2cc([N+](=O)[O-])ccc2Cl)N(c2ccc(Br)cc2)C1=O)c1ccc(N(CCC#N)CCC#N)cc1C | > 100 µM | > 100 µM | 97 µM | > 100 µM | > 100 µM | 36.3 µM | 43.8 µM | > 100 µM | > 100 µM | > 100 µM |  |  |  |  |  |  |  | 
